# Test results reported in PMC10952572, “Improved PIEZO1 agonism through 4‐benzoic acid modification of Yoda1” (British Journal of Pharmacology, 2023).
# How the values were obtained:
# mPIEZO1 = target: T1, mPIEZO1 (Mus musculus, UniProt E2JF22); test: Intracellular Ca2+ measurement (Fura-2) in mPIEZO1-TREx cells; format: cell-based; settings: for Peak ΔCa2+i (ΔF340/380), median fold difference compared to Yoda1: 10 μM compound, mPIEZO1-TREx cells, paired with 10 μM Yoda1; for Ca2+ response (agonist effect): 10 μM, cells overexpressing mPIEZO1, compared with Yoda1; for EC50: overexpressed mouse PIEZO1, calcium assays
# T1 construct: expressed in transfected cells
# Excerpt: HEK T‐REx™ cells that constitutively overexpress murine PIEZO1 were generated as previously described (Blythe et al., [2019]). pcDNA3 mouse PIEZO1 (mPIEZO1) IRES green fluorescent protein (GFP), a gift from Ardem Patapoutian (Coste et al., [2010]), was used as a template to clone the mPIEZO1 coding sequence into pcDNA4/TO. Overlapping mPIEZO1 (forward primer 5′‐[…]‐3′ and reverse primer 5′‐[…]‐3′) and pcDNA4/TO (forward primer 5′‐[…]‐3′ and reverse primer 5′‐[…]‐3′) PCR products were assembled using Gibson Assembly (New England Biolabs). […] HEK T‐REx™ 293 cells were transfected with pcDNA4/TO‐mPIEZO1 using Lipofectamine 2000 (Invitrogen) and treated with 200 μg·ml^−1 zeocin to select stably transfected cells. Individual clones were isolated and analysed for expression using Yoda1 and intracellular Ca^2+ measurements. These cells are referred to as mPIEZO1‐TREx.
# (§1) HEK 293‐TREx cells and their stably transfected derivatives or transiently transfected HEK 293 or HeLa cells were seeded at a density of 7.5 × 10^4 cells per well into poly‐D‐lysine‐coated 96‐well plates. The plates were either commercially pre‐coated with poly‐D‐lysine (Greiner Bio‐One #655946) or (Greiner Bio‐One #655090) were coated in‐house with 35 μl of a 10 μg·ml^−1 poly‐D‐lysine (Bio‐Techne, Cultrex # 3439‐100‐01) in sterile deionised water per well for at least 24 h and rinsed three times with 100 μl per well sterile D‐PBS before addition of cells. HUVECs were seeded into tissue culture‐treated 96‐well plates (Greiner Bio‐One #655090) at a density of either 2.5 × 10^4 cells 24 h before experimentation or 1.25 × 10^4 cells 48 h before experimentation. Cells were incubated with 2 μM Fura‐2‐AM (Molecular Probes™) in the presence of 0.01% (wt./vol.) pluronic F127 (Sigma‐Aldrich #P2443) in standard bath solution (SBS) for 1 h at 37°C. Cells were washed with SBS for 30 min at room temperature. Alternatively, if inhibitors were being tested, these were added at this time, immediately following a wash in SBS. (−)‐Englerin A (Akbulut et al., [2015]) was used in SBS containing 0.01% pluronic acid as a dispersing agent to minimise aggregation of compound. Unless otherwise stated, the final concentration of DMSO was 0.2% (vol./vol). Working 2000× stock solutions of test compounds were freshly made in DMSO and diluted 1000‐fold in SBS during the 30 min SBS wash/inhibitor pre‐incubation period to obtain 2× solutions for injection. When testing the highest concentration of Yoda1, KC159 and KC289 (30 μM), the final DMSO concentration was 0.6% (vol./vol.). Measurements were made at room temperature on a 96‐well fluorescence plate reader (FlexStation 3, Molecular Devices, Sunnyvale, CA, USA) controlled by SoftMax Pro software v7.0.3. Recipient wells containing 80 μl SBS/0.2% (vol./vol.) DMSO vehicle or inhibitor compound received 80 μl 2× compound at an injection rate of 1 μl·s^−1, and the pipette introduced liquids from a height setting of 70 μl. No trituration was performed. For recordings using Fura‐2, the change in intracellular Ca was indicated as the ratio of Fura‐2 emission (510 nm) intensities at 340 and 380 nm excitation. Photomultipliers were set to medium sensitivity. SBS contained 130 mM NaCl, 5 mM KCl, 8 mM D‐glucose, 10 mM HEPES, 1.2 mM MgCl2 and 1.5 mM CaCl2, and the pH was adjusted to 7.4 with NaOH. The solution was filtered through a 0.2 μm bottle‐top filter prior to use and handled aseptically thereafter.
# For intracellular Ca^2+ (Ca^2+i) measurements, technical intra‐experiment replicates were used to improve confidence in the data. Analysis of individual experiments was performed to obtain mean ± SEM values. For collated analysis of independent experiments, where normal distributions were not evidenced by Shapiro–Wilk normality tests, non‐parametric distributions were assumed, and therefore, median values were used. […]
# [1] = In-house aqueous solubility in universal aqueous buffer; format: physicochemical; settings: for Solubility in aqueous buffer relative to Yoda1: universal aqueous buffer pH 7.4
# Protocol: Standard curves for each test compound were constructed. DMSO‐dissolved test compounds were added to universal aqueous buffer (45 mM ethanolamine, 45 mM KH2PO4 and 45 mM KOAc, pH 7.4): acetonitrile 80:20 (298.5 μl) at a final DMSO concentration of 0.5%. Samples were incubated at room temperature with 300 rpm shaking for 30 min; 200 μl of each well was transferred to a 96‐well polypropylene V‐bottomed collection plate, and absorbance readings were taken at 250–500 nm in 10 nm increments. Thus, the λ max was identified at which concentration versus absorbance was plotted to provide standard curves.
# After filtration through hydrophilic PTFE 0.2 μm filters, 160 μl sample was transferred to wells of a 96‐well polypropylene V‐bottomed collection plate and 40 μl acetonitrile was added to each well. Absorbance readings were taken at 250–500 nm in 10 nm increments. Solubility was calculated at the appropriate λ max with reference to the standard curve.
# HeLa cells = test: Intracellular Ca2+ measurement in HeLa cells with siRNA knockdown of PIEZO1/PIEZO2; format: cell-based, human; settings: 10 μM; for Ca2+ response after PIEZO1 depletion / Ca2+ response after PIEZO2 depletion: HeLa cells; for Ca2+ response after PIEZO1 depletion: siPIEZO1; for Ca2+ response after PIEZO2 depletion: siPIEZO2
# Protocol: Hela (ATCC Cat #CRM‐CCL‐2, RRID:CVCL_0030) and HEK 293 (ATCC Cat #CRL‐1573, RRID:CVCL_0045) cells were purchased from ATCC and maintained in DMEM supplemented with 10% heat‐inactivated fetal calf serum, 100 U·ml^−1 penicillin and 100 μg·ml^−1 streptomycin (Sigma‐Aldrich).
# Cells were transfected using Opti‐MEM™ I Reduced Serum Medium (Thermo Fisher Scientific) and Lipofectamine 2000 (Thermo Fisher Scientific). For transfection of cells in six‐well plates, […] short‐interfering RNA (siRNA) (control siRNA [siCtrl]: Dharmacon ON‐TARGETplus Non‐targeting Control Pool, D‐001810‐10‐05; siRNA targeted to PIEZO2 expression [siPIEZO2]: Dharmacon ON‐TARGETplus SmartPool PIEZO2, L‐013925‐02‐0005; and PIEZO1: Sigma‐Aldrich, GCAAGUUCGUGCGCGGAUU[DT][DT]) and 3 μl of Lipofectamine 2000 complexed in 200 μl of Opti‐MEM were added to 0.8 ml cell culture medium per well. The culture medium was changed 4 h post transfection, and cells were used for experiments 48 h later.
# as §1
# T1 sequence (E2JF22 whole entry): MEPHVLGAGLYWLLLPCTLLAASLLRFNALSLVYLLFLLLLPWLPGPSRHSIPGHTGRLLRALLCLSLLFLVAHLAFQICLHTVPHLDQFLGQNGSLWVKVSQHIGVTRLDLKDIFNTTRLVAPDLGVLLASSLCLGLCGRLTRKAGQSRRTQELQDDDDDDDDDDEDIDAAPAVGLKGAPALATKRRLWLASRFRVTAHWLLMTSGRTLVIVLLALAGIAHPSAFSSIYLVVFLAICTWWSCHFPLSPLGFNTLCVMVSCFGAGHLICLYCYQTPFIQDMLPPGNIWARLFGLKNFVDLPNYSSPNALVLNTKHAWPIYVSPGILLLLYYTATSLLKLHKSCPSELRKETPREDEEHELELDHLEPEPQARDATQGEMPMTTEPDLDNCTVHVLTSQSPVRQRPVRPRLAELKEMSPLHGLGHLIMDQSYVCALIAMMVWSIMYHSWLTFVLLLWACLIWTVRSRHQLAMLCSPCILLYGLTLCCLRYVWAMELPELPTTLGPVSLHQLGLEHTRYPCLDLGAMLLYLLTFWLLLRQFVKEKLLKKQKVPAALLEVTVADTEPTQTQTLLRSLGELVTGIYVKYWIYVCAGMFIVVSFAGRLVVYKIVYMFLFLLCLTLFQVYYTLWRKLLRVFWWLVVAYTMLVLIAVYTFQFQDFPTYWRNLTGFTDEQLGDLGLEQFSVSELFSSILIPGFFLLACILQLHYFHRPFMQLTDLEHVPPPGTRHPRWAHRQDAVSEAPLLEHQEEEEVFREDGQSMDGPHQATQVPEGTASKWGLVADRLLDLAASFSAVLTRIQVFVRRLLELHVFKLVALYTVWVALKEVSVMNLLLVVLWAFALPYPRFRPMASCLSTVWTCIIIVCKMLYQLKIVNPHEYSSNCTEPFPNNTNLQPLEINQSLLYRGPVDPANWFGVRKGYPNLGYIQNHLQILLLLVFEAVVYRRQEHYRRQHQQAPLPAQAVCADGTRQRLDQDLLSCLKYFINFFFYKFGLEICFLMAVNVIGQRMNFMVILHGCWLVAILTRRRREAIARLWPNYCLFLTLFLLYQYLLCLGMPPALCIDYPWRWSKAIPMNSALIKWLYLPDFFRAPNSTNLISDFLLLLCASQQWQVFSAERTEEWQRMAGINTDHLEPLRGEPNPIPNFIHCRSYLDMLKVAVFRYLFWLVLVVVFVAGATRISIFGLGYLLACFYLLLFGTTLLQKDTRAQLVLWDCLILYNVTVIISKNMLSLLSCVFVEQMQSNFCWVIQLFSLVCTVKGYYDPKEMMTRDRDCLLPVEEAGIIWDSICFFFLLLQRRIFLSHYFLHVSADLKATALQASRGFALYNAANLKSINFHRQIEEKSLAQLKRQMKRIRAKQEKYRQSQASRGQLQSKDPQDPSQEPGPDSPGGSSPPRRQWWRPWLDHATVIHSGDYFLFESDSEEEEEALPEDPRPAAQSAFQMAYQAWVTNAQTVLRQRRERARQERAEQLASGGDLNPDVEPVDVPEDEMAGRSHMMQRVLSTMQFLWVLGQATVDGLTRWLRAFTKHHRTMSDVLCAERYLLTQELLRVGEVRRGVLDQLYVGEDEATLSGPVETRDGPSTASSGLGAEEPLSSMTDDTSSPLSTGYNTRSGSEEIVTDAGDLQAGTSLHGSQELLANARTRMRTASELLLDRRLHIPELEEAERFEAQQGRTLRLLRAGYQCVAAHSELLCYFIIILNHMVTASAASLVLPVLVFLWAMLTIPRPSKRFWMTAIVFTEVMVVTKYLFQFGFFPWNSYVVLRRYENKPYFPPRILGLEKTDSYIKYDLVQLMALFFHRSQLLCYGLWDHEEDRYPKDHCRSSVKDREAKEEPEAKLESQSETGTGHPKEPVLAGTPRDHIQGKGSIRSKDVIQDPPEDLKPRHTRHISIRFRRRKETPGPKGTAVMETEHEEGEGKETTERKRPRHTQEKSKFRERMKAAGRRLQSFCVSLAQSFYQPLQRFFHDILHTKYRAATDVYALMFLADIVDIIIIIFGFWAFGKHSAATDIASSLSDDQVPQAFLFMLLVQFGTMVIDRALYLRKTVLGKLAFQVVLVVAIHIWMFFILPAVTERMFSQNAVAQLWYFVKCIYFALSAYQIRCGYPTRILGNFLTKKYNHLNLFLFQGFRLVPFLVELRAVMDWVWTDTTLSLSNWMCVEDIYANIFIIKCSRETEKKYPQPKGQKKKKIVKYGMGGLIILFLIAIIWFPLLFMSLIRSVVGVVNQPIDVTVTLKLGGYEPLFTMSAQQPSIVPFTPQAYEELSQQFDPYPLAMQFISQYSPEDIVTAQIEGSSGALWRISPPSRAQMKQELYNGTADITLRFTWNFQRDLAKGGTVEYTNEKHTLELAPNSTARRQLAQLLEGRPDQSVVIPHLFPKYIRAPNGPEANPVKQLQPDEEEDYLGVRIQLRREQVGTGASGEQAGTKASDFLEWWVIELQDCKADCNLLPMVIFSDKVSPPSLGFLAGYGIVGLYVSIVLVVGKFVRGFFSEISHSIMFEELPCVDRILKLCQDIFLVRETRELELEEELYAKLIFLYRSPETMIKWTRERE
Compound,"Peak ΔCa2+i (ΔF340/380), median fold difference compared to Yoda1 (mPIEZO1)",Ca2+ response (agonist effect) (mPIEZO1),EC50 (mPIEZO1) [nM],Solubility in aqueous buffer relative to Yoda1 [1],Ca2+ elevations in HeLa cells (HeLa cells),Ca2+ response after PIEZO1 depletion (HeLa cells),Ca2+ response after PIEZO2 depletion (HeLa cells),"Potency relative to Yoda1 (mPIEZO1; mPIEZO1, from EC50 values)","solubility at 1.5 h ([1]; universal aqueous buffer, pH 7.4, aqueous buffer, kinetic from dmso stock, lower limit of detection 0.1 µM, read-out: Estimated solubility in universal aqueous buffer) [µM]"
O=C(O)c1ccccc1-c1nnc(SCc2c(Cl)cccc2Cl)s1 [KC157],−70.6 fold,inactive,–,–,–,–,–,–,–
O=C(O)c1ccc(-c2nnc(SCc3c(Cl)cccc3Cl)s2)cc1 [KC159],+1.1 fold,larger responses than Yoda1,280,at least 160 times,evoked Ca^2+ elevations,partly suppressed,partly suppressed,–,–
O=C([O-])c1ccc(-c2nnc(SCc3c(Cl)cccc3Cl)s2)cc1.[K+] [KC289],+1.2 fold,larger responses than Yoda1,150,at least 160 times,evoked Ca^2+ elevations,partly suppressed,partly suppressed,approximately four times more potent than Yoda1,–
"Clc1cccc(Cl)c1CSc1nnc(-c2cnccn2)s1 [Yoda1, 2‐[5‐[[(2,6‐dichlorophenyl)methyl]thio]‐1,3,4‐thiadiazol‐2‐yl]pyrazine]",–,–,600,–,evoked Ca^2+ elevations,partly suppressed,partly suppressed,–,< 0.1
